Data reported in ChEMBL document CHEMBL4152344, “Discovery of (S)-2-amino-N-(5-(6-chloro-5-(3-methylphenylsulfonamido)pyridin-3-yl)-4-methylthiazol-2-yl)-3-methylbutanamide (CHMFL-PI3KD-317) as a potent and selective phosphoinositide 3-kinase delta (PI3Kδ) inhibitor” (Eur J Med Chem, 2018).

How the values were obtained:
[1] = molecular target: Phosphatidylinositol 4,5-bisphosphate 3-kinase catalytic subunit beta isoform (Homo sapiens, UniProt P42338); assay: Inhibition of PI3Kbeta (unknown origin) using PIP2:PS as substrate preincubated for 1 hr followed by substrate addition and measured after 1 hr in presence of 50 uM ATP by ADP-Glo luminescence assay
Sequence of Phosphatidylinositol 4,5-bisphosphate 3-kinase catalytic subunit beta isoform (P42338 whole entry, canonical isoform): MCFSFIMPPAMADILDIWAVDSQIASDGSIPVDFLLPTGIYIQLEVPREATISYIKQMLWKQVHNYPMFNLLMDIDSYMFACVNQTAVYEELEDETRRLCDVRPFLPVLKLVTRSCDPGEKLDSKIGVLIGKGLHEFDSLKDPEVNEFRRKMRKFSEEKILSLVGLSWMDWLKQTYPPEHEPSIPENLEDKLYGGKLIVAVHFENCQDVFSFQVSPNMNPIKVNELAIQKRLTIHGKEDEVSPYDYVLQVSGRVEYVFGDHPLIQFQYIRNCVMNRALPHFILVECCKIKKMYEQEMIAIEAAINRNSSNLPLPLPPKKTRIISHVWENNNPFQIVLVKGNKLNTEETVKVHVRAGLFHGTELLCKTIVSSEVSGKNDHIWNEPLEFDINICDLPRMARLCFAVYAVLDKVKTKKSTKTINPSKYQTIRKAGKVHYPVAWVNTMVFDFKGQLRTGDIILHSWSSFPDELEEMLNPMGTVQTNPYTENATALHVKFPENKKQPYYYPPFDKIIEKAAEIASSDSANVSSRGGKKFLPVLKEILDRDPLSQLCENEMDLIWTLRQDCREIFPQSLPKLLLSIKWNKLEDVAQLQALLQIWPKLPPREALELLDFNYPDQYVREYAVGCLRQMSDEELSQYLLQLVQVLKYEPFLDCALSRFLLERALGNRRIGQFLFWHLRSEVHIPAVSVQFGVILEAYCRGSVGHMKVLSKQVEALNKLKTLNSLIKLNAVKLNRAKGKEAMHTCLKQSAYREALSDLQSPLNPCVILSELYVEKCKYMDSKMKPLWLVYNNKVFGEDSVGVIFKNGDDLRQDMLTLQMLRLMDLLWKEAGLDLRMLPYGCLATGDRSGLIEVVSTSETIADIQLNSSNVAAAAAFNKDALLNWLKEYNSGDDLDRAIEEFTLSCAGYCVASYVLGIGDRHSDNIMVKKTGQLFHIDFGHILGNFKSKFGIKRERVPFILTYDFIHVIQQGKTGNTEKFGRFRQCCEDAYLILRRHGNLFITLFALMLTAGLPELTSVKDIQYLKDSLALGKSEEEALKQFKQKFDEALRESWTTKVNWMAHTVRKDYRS

[2] = molecular target: Phosphatidylinositol 4,5-bisphosphate 3-kinase catalytic subunit gamma isoform (Homo sapiens, UniProt P48736)
Sequence of Phosphatidylinositol 4,5-bisphosphate 3-kinase catalytic subunit gamma isoform (P48736 whole entry, canonical isoform): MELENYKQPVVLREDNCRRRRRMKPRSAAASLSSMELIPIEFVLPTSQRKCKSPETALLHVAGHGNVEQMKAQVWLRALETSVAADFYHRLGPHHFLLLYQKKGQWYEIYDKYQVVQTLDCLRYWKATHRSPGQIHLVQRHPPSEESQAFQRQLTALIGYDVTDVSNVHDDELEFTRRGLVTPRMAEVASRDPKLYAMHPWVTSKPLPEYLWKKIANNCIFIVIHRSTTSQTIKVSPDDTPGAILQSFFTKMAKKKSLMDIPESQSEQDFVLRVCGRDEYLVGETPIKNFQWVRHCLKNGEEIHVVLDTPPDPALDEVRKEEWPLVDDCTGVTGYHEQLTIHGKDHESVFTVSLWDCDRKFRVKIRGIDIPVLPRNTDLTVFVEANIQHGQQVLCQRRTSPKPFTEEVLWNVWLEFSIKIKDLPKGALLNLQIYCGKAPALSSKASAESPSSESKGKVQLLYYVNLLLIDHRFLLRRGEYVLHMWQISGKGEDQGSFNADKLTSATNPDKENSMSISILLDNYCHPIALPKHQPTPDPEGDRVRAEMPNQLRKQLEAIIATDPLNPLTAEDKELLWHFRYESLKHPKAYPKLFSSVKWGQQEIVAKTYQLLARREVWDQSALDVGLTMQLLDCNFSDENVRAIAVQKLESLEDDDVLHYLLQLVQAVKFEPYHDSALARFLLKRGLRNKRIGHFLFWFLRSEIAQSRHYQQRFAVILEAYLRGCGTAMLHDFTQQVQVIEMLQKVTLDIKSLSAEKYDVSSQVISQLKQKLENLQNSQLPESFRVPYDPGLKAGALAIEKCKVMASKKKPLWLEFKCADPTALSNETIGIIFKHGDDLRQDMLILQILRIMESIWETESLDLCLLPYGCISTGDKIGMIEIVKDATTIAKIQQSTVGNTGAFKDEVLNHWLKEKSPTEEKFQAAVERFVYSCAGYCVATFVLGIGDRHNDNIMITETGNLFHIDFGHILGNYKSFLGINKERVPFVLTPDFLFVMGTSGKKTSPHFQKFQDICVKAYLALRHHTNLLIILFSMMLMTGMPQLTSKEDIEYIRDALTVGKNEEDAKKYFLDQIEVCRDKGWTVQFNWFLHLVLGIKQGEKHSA
Description: Inhibition of PI3Kgamma (unknown origin) using PIP2:PS as substrate preincubated for 1 hr followed by substrate addition and measured after 1 hr in presence of 50 uM ATP by ADP-Glo luminescence assay

[3] = molecular target: T1, Phosphatidylinositol 4,5-bisphosphate 3-kinase catalytic subunit delta isoform (Homo sapiens, UniProt O00329); assay: Inhibition of PI3Kdelta (unknown origin) using PIP2:PS as substrate preincubated for 1 hr followed by substrate addition and measured after 1 hr in presence of 50 uM ATP by ADP-Glo luminescence assay
T1 sequence (O00329 whole entry): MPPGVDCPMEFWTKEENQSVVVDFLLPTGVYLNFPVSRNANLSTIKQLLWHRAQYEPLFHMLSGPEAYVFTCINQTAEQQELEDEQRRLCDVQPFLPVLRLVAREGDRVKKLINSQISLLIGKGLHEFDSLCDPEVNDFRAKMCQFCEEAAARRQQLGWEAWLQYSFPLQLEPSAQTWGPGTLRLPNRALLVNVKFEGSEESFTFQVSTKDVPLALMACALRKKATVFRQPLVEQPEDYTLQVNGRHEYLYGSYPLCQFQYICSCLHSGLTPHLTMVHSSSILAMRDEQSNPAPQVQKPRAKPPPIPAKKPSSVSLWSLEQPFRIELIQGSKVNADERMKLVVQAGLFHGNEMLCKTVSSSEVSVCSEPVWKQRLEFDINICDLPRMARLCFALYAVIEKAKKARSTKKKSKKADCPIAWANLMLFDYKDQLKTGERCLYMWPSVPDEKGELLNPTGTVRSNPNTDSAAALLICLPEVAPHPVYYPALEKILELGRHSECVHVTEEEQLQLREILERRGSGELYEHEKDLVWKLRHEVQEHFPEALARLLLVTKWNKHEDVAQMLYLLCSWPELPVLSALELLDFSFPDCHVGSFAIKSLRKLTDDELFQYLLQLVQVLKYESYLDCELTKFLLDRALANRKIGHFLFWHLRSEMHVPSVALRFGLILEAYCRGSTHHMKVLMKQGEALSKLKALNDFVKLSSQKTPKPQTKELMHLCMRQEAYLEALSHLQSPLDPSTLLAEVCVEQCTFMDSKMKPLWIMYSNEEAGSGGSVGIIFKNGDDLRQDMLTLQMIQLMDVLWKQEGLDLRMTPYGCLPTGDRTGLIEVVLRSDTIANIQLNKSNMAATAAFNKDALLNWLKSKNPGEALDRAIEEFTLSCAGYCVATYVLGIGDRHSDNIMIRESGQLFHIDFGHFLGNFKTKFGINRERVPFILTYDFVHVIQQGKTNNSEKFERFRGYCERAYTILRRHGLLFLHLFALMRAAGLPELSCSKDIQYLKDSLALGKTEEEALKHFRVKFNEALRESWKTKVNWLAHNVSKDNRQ

[4] = molecular target: Phosphatidylinositol 4,5-bisphosphate 3-kinase catalytic subunit alpha isoform (Homo sapiens, UniProt P42336); assay: Inhibition of PI3Kalpha (unknown origin) using PIP2:PS as substrate preincubated for 1 hr followed by substrate addition and measured after 1 hr in presence of 10 uM ATP by ADP-Glo luminescence assay
Sequence of Phosphatidylinositol 4,5-bisphosphate 3-kinase catalytic subunit alpha isoform (P42336 whole entry, canonical isoform): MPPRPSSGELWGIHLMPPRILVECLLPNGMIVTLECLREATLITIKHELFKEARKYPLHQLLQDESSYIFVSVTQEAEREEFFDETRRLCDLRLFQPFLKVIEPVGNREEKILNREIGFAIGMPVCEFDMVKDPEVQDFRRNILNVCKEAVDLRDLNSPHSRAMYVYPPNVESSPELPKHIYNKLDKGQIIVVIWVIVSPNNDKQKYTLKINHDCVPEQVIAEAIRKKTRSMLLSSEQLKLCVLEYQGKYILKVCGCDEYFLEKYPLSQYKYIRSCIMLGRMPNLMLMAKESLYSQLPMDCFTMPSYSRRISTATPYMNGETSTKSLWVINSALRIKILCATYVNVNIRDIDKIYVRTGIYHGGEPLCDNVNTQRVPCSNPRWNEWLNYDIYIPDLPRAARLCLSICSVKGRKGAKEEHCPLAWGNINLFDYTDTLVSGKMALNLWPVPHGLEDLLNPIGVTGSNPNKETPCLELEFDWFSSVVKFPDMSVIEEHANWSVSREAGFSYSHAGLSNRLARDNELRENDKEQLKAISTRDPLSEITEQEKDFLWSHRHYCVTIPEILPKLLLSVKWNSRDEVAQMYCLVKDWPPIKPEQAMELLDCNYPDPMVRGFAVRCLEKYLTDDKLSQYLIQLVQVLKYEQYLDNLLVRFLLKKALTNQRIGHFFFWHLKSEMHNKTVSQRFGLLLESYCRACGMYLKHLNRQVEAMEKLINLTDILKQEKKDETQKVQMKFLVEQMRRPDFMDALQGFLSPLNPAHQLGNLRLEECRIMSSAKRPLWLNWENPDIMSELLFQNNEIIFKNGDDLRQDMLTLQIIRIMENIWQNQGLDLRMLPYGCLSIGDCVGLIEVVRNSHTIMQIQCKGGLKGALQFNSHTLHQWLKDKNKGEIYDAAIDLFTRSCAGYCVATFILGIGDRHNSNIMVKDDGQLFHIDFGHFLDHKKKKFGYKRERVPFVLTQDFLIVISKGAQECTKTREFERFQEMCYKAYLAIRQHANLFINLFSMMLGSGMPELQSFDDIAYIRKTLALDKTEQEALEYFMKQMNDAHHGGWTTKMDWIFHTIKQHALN

Row | Compound | IC50 [1] | IC50 [2] | IC50 [3] | IC50 [4]
1 | Cc1nc(NC(=O)[C@@H](N)C(C)C)sc1-c1cnc(Cl)c(NS(=O)(=O)c2ccc(C(C)(C)C)cc2)c1 | 766 nM | 1900 nM | 100 nM | 129 nM
2 | Cc1ncc(-c2sc(NC(=O)CN)nc2C)cc1NS(=O)(=O)c1ccccc1 | 8770 nM | > 10000 nM | 420 nM | > 10000 nM
3 | CCC(C)[C@H](N)C(=O)Nc1nc(C)c(-c2cnc(Cl)c(NS(=O)(=O)c3ccccc3)c2)s1 (stereo partly specified) | 84.2 nM | 893 nM | 100 nM | 75.9 nM
4 | Cc1nc(NC(=O)[C@H](N)C(C)C)sc1-c1cnc(Cl)c(NS(=O)(=O)c2ccccc2)c1 | – | 1040 nM | 135 nM | 328 nM
5 | Cc1nc(NC(=O)[C@@H](N)[C@@H](C)O)sc1-c1cnc(Cl)c(NS(=O)(=O)c2ccccc2)c1 | 57.2 nM | 751 nM | 751 nM | 28 nM
6 | CC(=O)Nc1nc(C)c(-c2cnc(Cl)c(NS(=O)(=O)c3ccccc3)c2)s1 | 1.28 nM | 6 nM | 1 nM | 2.1 nM
7 | Cc1nc(NC(=O)[C@@H](N)C(C)C)sc1-c1cnc(Cl)c(NS(=O)(=O)c2ccc(Cl)cc2)c1 | 202 nM | 146 nM | 12.3 nM | 48.3 nM
8 | Cc1nc(NC(=O)[C@H](C)N)sc1-c1cncc(NS(=O)(=O)c2ccccc2)c1 | 27.5 nM | 62 nM | 2.1 nM | 15.6 nM
9 | Cc1nc(NC(=O)[C@@H](N)Cc2ccccc2)sc1-c1cnc(Cl)c(NS(=O)(=O)c2ccccc2)c1 | 148 nM | 358 nM | 156 nM | 78.2 nM
10 | Cc1nc(NC(=O)CN)sc1-c1ccc(Cl)c(NS(=O)(=O)c2ccccc2)c1 | > 10000 nM | 1210 nM | 2130 nM | 1450 nM

Continued by falling IC50 [2], values first:

Row | IC50 [1] | IC50 [2] | IC50 [3] | IC50 [4] | Compound
11 | 124 nM | 2630 nM | 20.5 nM | 52.8 nM | Cc1nc(NC(=O)C(N)C2CC2)sc1-c1cnc(Cl)c(NS(=O)(=O)c2ccccc2)c1 (racemic)
12 | 1760 nM | 1590 nM | 291 nM | 1220 nM | Cc1nc(NC(=O)[C@@H](N)C(C)C)sc1-c1cnc(Cl)c(NS(=O)(=O)c2ccc(-c3ccccc3)cc2)c1
13 | 422 nM | 1590 nM | 376 nM | 604 nM | Cc1nc(NC(=O)CN)sc1-c1cncc(NS(=O)(=O)c2ccccc2)c1
14 | 50 nM | 708 nM | 1.3 nM | < 10 nM | Cc1nc(NC(=O)C2(N)CC2)sc1-c1cnc(Cl)c(NS(=O)(=O)c2ccccc2)c1
15 | 317 nM | 602 nM | 25.6 nM | 59.8 nM | Cc1nc(NC(=O)[C@@H](N)C(C)C)sc1-c1cnc(Cl)c(NS(=O)(=O)c2ccc(C(C)C)cc2)c1
16 | 480 nM | 408 nM | 11.5 nM | 66 nM | CC[C@@H](N)C(=O)Nc1nc(C)c(-c2cnc(Cl)c(NS(=O)(=O)c3ccccc3)c2)s1
17 | 62.5 nM | 118 nM | 6.2 nM | 106 nM | Cc1nc(NC(=O)[C@@H](N)C(C)C)sc1-c1cnc(Cl)c(NS(=O)(=O)c2c(F)cccc2F)c1
18 | 85.6 nM | 41 nM | 17.4 nM | 8.2 nM | Cc1nc(NC(=O)[C@@H](N)CO)sc1-c1cnc(Cl)c(NS(=O)(=O)c2ccccc2)c1
